Experimental data reported in BindingDB's records for doi:10.1016/s0960-894x(03)00461-x (Eli Lilly, 2003).

Each molecule was assayed against cAMP-dependent protein kinase catalytic subunit alpha (Bos taurus, UniProt P00517) (assay: CDK Kinase Inhibition Assay). Details: 25 °C.
An IC50 of over 2 µM was found for `O=C1NC(=O)c2c1c1c(ccc3cc[nH]c31)c1[nH]c3ccccc3c21` [3,13,18-triazahexacyclo[14.7.0.0^{2,10}.0^{4,9}.0^{11,15}.0^{17,21}]tricosa-1(16),2(10),4(9),5,7,11(15),17(21),19,22-nonaene-12,14-dione] in this work.
An IC50 of over 20 µM was found for `O=C1NC(=O)c2c1c1c(ccc3cc[nH]c31)c1c2c2ccccc2n1CCCO` [3-(3-hydroxypropyl)-3,13,18-triazahexacyclo[14.7.0.0^{2,10}.0^{4,9}.0^{11,15}.0^{17,21}]tricosa-1(16),2(10),4(9),5,7,11(15),17(21),19,22-nonaene-12,14-dione] in this work.
An IC50 of over 2 µM was found for `Cn1ccc2ccc3c(c4c(c5c6ccccc6n(CCCO)c35)C(=O)NC4=O)c21` [3-(3-hydroxypropyl)-18-methyl-3,13,18-triazahexacyclo[14.7.0.0^{2,10}.0^{4,9}.0^{11,15}.0^{17,21}]tricosa-1(16),2(10),4(9),5,7,11(15),17(21),19,22-nonaene-12,14-dione] in this work.
An IC50 of over 20 µM was found for `COc1ccc2c3c4c(c5c(ccc6ccn(C)c65)c3n(CCN3CCC[C@H]3CO)c2c1)C(=O)NC4=O` [3-{2-[(2S)-2-(hydroxymethyl)pyrrolidin-1-yl]ethyl}-6-methoxy-18-methyl-3,13,18-triazahexacyclo[14.7.0.0^{2,10}.0^{4,9}.0^{11,15}.0^{17,21}]tricosa-1(16),2(10),4(9),5,7,11(15),17(21),19,22-nonaene-12,14-dione] in this work.
An IC50 of over 20 µM was found for `Cn1ccc2ccc3c4[nH]c5c(CCO)cccc5c4c4c(c3c21)C(=O)NC4=O` [5-(2-hydroxyethyl)-18-methyl-3,13,18-triazahexacyclo[14.7.0.0^{2,10}.0^{4,9}.0^{11,15}.0^{17,21}]tricosa-1(16),2(10),4(9),5,7,11(15),17(21),19,22-nonaene-12,14-dione] in this work.
An IC50 of over 20 µM was found for `Cn1ccc2ccc3c4[nH]c5c(CCCO)cccc5c4c4c(c3c21)C(=O)NC4=O` [5-(3-hydroxypropyl)-18-methyl-3,13,18-triazahexacyclo[14.7.0.0^{2,10}.0^{4,9}.0^{11,15}.0^{17,21}]tricosa-1(16),2(10),4(9),5,7,11(15),17(21),19,22-nonaene-12,14-dione] in this work.
An IC50 of over 20 µM was found for `COc1cccc2c1[nH]c1c3ccc4ccn(C)c4c3c3c(c21)C(=O)NC3=O` [5-methoxy-18-methyl-3,13,18-triazahexacyclo[14.7.0.0^{2,10}.0^{4,9}.0^{11,15}.0^{17,21}]tricosa-1(16),2(10),4(9),5,7,11(15),17(21),19,22-nonaene-12,14-dione] in this work.
An IC50 of over 20 µM was found for `Cc1ccc2c(c1)[nH]c1c3ccc4ccn(C)c4c3c3c(c21)C(=O)NC3=O` [6,18-dimethyl-3,13,18-triazahexacyclo[14.7.0.0^{2,10}.0^{4,9}.0^{11,15}.0^{17,21}]tricosa-1(16),2(10),4(9),5,7,11(15),17(21),19,22-nonaene-12,14-dione] in this work.
An IC50 of over 20 µM was found for `Cn1ccc2ccc3c4[nH]c5cc(Br)ccc5c4c4c(c3c21)C(=O)NC4=O` [6-bromo-18-methyl-3,13,18-triazahexacyclo[14.7.0.0^{2,10}.0^{4,9}.0^{11,15}.0^{17,21}]tricosa-1(16),2(10),4(9),5,7,11(15),17(21),19,22-nonaene-12,14-dione] in this work.
An IC50 of over 20 µM was found for `CCOc1ccc2c(c1)[nH]c1c3ccc4ccn(C)c4c3c3c(c21)C(=O)NC3=O` [6-ethoxy-18-methyl-3,13,18-triazahexacyclo[14.7.0.0^{2,10}.0^{4,9}.0^{11,15}.0^{17,21}]tricosa-1(16),2(10),4(9),5,7,11(15),17(21),19,22-nonaene-12,14-dione] in this work.
An IC50 of over 20 µM was found for `Cc1cc2ccn(C)c2c2c3c(c4c5ccc(F)cc5[nH]c4c12)C(=O)NC3=O` [6-fluoro-18,23-dimethyl-3,13,18-triazahexacyclo[14.7.0.0^{2,10}.0^{4,9}.0^{11,15}.0^{17,21}]tricosa-1(16),2(10),4(9),5,7,11(15),17(21),19,22-nonaene-12,14-dione] in this work.
An IC50 of over 20 µM was found for `Cn1ccc2ccc3c4[nH]c5cc(F)ccc5c4c4c(c3c21)C(=O)NC4=O` [6-fluoro-18-methyl-3,13,18-triazahexacyclo[14.7.0.0^{2,10}.0^{4,9}.0^{11,15}.0^{17,21}]tricosa-1(16),2(10),4(9),5,7,11(15),17(21),19,22-nonaene-12,14-dione] in this work.
An IC50 of over 20 µM was found for `COc1ccc2c(c1)[nH]c1c2c2c(c3c1c(C)cc1ccn(C)c13)C(=O)NC2=O` [6-methoxy-18,23-dimethyl-3,13,18-triazahexacyclo[14.7.0.0^{2,10}.0^{4,9}.0^{11,15}.0^{17,21}]tricosa-1(16),2(10),4(9),5,7,11(15),17(21),19,22-nonaene-12,14-dione] in this work.
An IC50 of over 20 µM was found for `COc1ccc2c(c1)[nH]c1c3ccc4ccn(C)c4c3c3c(c21)C(=O)NC3=O` [6-methoxy-18-methyl-3,13,18-triazahexacyclo[14.7.0.0^{2,10}.0^{4,9}.0^{11,15}.0^{17,21}]tricosa-1(16),2(10),4(9),5,7,11(15),17(21),19,22-nonaene-12,14-dione] in this work.
An IC50 of over 20 µM was found for `Cn1ccc2ccc3c4[nH]c5ccc(F)cc5c4c4c(c3c21)C(=O)NC4=O` [7-fluoro-18-methyl-3,13,18-triazahexacyclo[14.7.0.0^{2,10}.0^{4,9}.0^{11,15}.0^{17,21}]tricosa-1(16),2(10),4(9),5,7,11(15),17(21),19,22-nonaene-12,14-dione] in this work.
An IC50 of over 20 µM was found for `COc1ccc2[nH]c3c4ccc5ccn(C)c5c4c4c(c3c2c1)C(=O)NC4=O` [7-methoxy-18-methyl-3,13,18-triazahexacyclo[14.7.0.0^{2,10}.0^{4,9}.0^{11,15}.0^{17,21}]tricosa-1(16),2(10),4(9),5,7,11(15),17(21),19,22-nonaene-12,14-dione] in this work.
An IC50 of over 20 µM was found for `Cn1ccc2ccc3c4[nH]c5cccc(CO)c5c4c4c(c3c21)C(=O)NC4=O` [8-(hydroxymethyl)-18-methyl-3,13,18-triazahexacyclo[14.7.0.0^{2,10}.0^{4,9}.0^{11,15}.0^{17,21}]tricosa-1(16),2(10),4(9),5,7,11(15),17(21),19,22-nonaene-12,14-dione] in this work.
An IC50 of over 20 µM was found for `Cn1ccc2ccc3c4[nH]c5cccc(Br)c5c4c4c(c3c21)C(=O)NC4=O` [8-bromo-18-methyl-3,13,18-triazahexacyclo[14.7.0.0^{2,10}.0^{4,9}.0^{11,15}.0^{17,21}]tricosa-1(16),2(10),4(9),5,7,11(15),17(21),19,22-nonaene-12,14-dione] in this work.
An IC50 of over 20 µM was found for `Cn1ccc2ccc3c4[nH]c5cccc(F)c5c4c4c(c3c21)C(=O)NC4=O` [8-fluoro-18-methyl-3,13,18-triazahexacyclo[14.7.0.0^{2,10}.0^{4,9}.0^{11,15}.0^{17,21}]tricosa-1(16),2(10),4(9),5,7,11(15),17(21),19,22-nonaene-12,14-dione] in this work.
An IC50 of over 20 µM was found for `Cc1cc2ccn(C)c2c2c3c(c4c5ccccc5[nH]c4c12)C(=O)NC3=O` [18,23-dimethyl-3,13,18-triazahexacyclo[14.7.0.0^{2,10}.0^{4,9}.0^{11,15}.0^{17,21}]tricosa-1(16),2(10),4(9),5,7,11(15),17(21),19,22-nonaene-12,14-dione] in this work.
An IC50 of over 20 µM was found for `Cc1cc2ccn(C)c2c2c3c(c4c5ccc(C(F)(F)F)cc5[nH]c4c12)C(=O)NC3=O` [18,23-dimethyl-6-(trifluoromethyl)-3,13,18-triazahexacyclo[14.7.0.0^{2,10}.0^{4,9}.0^{11,15}.0^{17,21}]tricosa-1(16),2(10),4(9),5,7,11(15),17(21),19,22-nonaene-12,14-dione] in this work.
An IC50 of over 2 µM was found for `CCn1ccc2ccc3c4[nH]c5ccccc5c4c4c(c3c21)C(=O)NC4=O` [18-ethyl-3,13,18-triazahexacyclo[14.7.0.0^{2,10}.0^{4,9}.0^{11,15}.0^{17,21}]tricosa-1(16),2(10),4(9),5,7,11(15),17(21),19,22-nonaene-12,14-dione] in this work.
An IC50 of over 20 µM was found for `Cn1ccc2ccc3c4[nH]c5ccccc5c4c4c(c3c21)C(=O)NC4=O` [18-methyl-3,13,18-triazahexacyclo[14.7.0.0^{2,10}.0^{4,9}.0^{11,15}.0^{17,21}]tricosa-1(16),2(10),4(9),5,7,11(15),17(21),19,22-nonaene-12,14-dione] in this work.
An IC50 of over 20 µM was found for `Cn1ccc2ccc3c4[nH]c5c(CCN6CCOCC6)cccc5c4c4c(c3c21)C(=O)NC4=O` [18-methyl-5-[2-(morpholin-4-yl)ethyl]-3,13,18-triazahexacyclo[14.7.0.0^{2,10}.0^{4,9}.0^{11,15}.0^{17,21}]tricosa-1(16),2(10),4(9),5,7,11(15),17(21),19,22-nonaene-12,14-dione] in this work.
An IC50 of over 20 µM was found for `Cn1ccc2ccc3c4[nH]c5c(CCN6CCSCC6)cccc5c4c4c(c3c21)C(=O)NC4=O` [18-methyl-5-[2-(thiomorpholin-4-yl)ethyl]-3,13,18-triazahexacyclo[14.7.0.0^{2,10}.0^{4,9}.0^{11,15}.0^{17,21}]tricosa-1(16),2(10),4(9),5,7,11(15),17(21),19,22-nonaene-12,14-dione] in this work.
An IC50 of over 20 µM was found for `Cn1ccc2ccc3c4[nH]c5c(CCCN6CCOCC6)cccc5c4c4c(c3c21)C(=O)NC4=O` [18-methyl-5-[3-(morpholin-4-yl)propyl]-3,13,18-triazahexacyclo[14.7.0.0^{2,10}.0^{4,9}.0^{11,15}.0^{17,21}]tricosa-1(16),2(10),4(9),5,7,11(15),17(21),19,22-nonaene-12,14-dione] in this work.
An IC50 of over 20 µM was found for `Cn1ccc2ccc3c4[nH]c5cc(C(F)(F)F)ccc5c4c4c(c3c21)C(=O)NC4=O` [18-methyl-6-(trifluoromethyl)-3,13,18-triazahexacyclo[14.7.0.0^{2,10}.0^{4,9}.0^{11,15}.0^{17,21}]tricosa-1(16),2(10),4(9),5,7,11(15),17(21),19,22-nonaene-12,14-dione] in this work.
An IC50 of over 20 µM was found for `Cn1ccc2ccc3c4[nH]c5cc(C#N)ccc5c4c4c(c3c21)C(=O)NC4=O` [18-methyl-12,14-dioxo-3,13,18-triazahexacyclo[14.7.0.0^{2,10}.0^{4,9}.0^{11,15}.0^{17,21}]tricosa-1(16),2(10),4(9),5,7,11(15),17(21),19,22-nonaene-6-carbonitrile] in this work.
An IC50 of over 20 µM was found for `Cn1ccc2cc(F)c3c4[nH]c5ccccc5c4c4c(c3c21)C(=O)NC4=O` [23-fluoro-18-methyl-3,13,18-triazahexacyclo[14.7.0.0^{2,10}.0^{4,9}.0^{11,15}.0^{17,21}]tricosa-1(16),2(10),4(9),5,7,11(15),17(21),19,22-nonaene-12,14-dione] in this work.
